According to patent US5583108A, “Vasonatrin peptide and analogs thereof” (Mayo Foundation for Medical Education and Research, priority 1994, dated 1996):

Legend:
[1] = system: isolated normal canine blood vessels; assay: Organ chamber isometric force: relaxation of phenylephrine-contracted vessel rings; design: species or system dog; settings: for relaxation: maximal dose (3×10^-6 M); for maximal response, percent change in tension from a contraction to phenylephrine: peptide 3 × 10^-6 M, mean ± SEM
Description: (§1) The results obtained are expressed as the means ±SEM. In organ chamber studies, n equals the number of dogs from which rings were taken. Rings with and without endothelium were studied in parallel, and Student's t-test for unpaired observations was used to determine statistical significance among the responses of rings with and without endothelium and between responses of arteries and veins. In rat studies, the data were analyzed using ANOVA for repeated measures followed by Fisher's least significant difference test when appropriate within the group. Data between groups were analyzed by Student's unpaired t-test. Statistical significance was determined at p<0.05.
Rings cut from femoral, saphenous, renal and pulmonary arteries and veins obtained from random source mongrel dogs (anesthetized with 30 mg/kg pentobarbital sodium intravenously) were suspended for the measurement of isometric force in organ chambers filled with aerated (95% O2 and 5% CO2) modified Krebs-Ringer bicarbonate solution (composition in mM: 118.3 NaCl, 4.7 KCl, 2.5 CaCl2, 1.2 MgSO4, 1.2 KH2 PO4, 25.0 NaHCO3, 0.026 calcium sodium EDTA, and 11.1 dextrose; control solution) at 37° C. In one-half rings, the endothelium was removed by gently rubbing the intimal surface with a cotton swab wetted with control solution. Each ring was stretched to the optimal point on its length-tension curve as determined by the tension developed to norepinephrine (3×10^-7 M) at each level of stretch. The presence of endothelium was determined at the beginning of the experiment by a relaxation to acetylcholine (10^-6 M) during a contraction to norepinephrine at optimal length. The maximal tension of each ring was determined by norepinephrine (10^-4 M). To study responses to ANP, CNP and VNP, the rings were contracted with phenylephrine (10^-6 M). These contractions averaged 30-40% of the maximal contraction to norepinephrine. The peptides were added cumulatively once the contraction had stabilized.
The following commercially available drugs were used: acetylcholine chloride (Sigma Chemical, St. Louis, Mo.), human ANP and human CNP (Peninsula Laboratories, Belmont, Calif.), L-norepinephrine bitartrate (Sigma), phenylephrine bitartrate (Sigma). All drugs were dissolved in distilled water immediately prior to study, and the concentrations are reported as the final molar concentration (M) in the organ chamber.

[2] = system: normal rats; assay: Cardiorenal actions after intravenous bolus in anesthetized normal rats; format: in vivo, Wistar rats; settings: for MAP mean arterial pressure / HR heart rate / RAP right atrial pressure / UKV urine potassium excretion / UNaV urine sodium excretion / UV urine volume / UcGMPV urine cGMP volume / PcGMP plasma cGMP: mean ± SEM; for MAP mean arterial pressure: n = 4
Description: as §1
Experiments were conducted in accordance with the Animal Welfare Act. Wistar rats and spontaneously hypertensive rats (SHR) (400 g; Harlan Sprague-Dawley, Indianapolis, Ind.) were anesthetized with Inactin (100 mg/kg; intraperitoneal; BYK Gulden, Konstanz, Germany). The body temperature was maintained between 36° and 38° C. by a heating pad. Tracheostomy was performed; however, the animals were not artificially ventilated. Polyethylene catheters (PE-50; Becton Dickinson Co., Parsippany, N.J.) were placed in the left Jugular vein for infusions of saline and drugs, in the right jugular vein to right atrium to monitor right atrial pressure, and in the carotid artery for the collection of blood samples and to monitor mean arterial pressure. A PE-90 catheter was placed in the bladder for urine collection.
Experiments were conducted in three groups in normal rats: ANP group (n=4), CNP group (n=4), and VNP group (n=4). VNP also was studied in SHR rats (n=4). Intravenous infusions of saline solution (0.9% NaCl) were performed (1 ml/100 gm body weight/hr) through the left jugular vein catheter. After completion of surgery, rats were allowed to stabilize for 30 minutes. In each group, a 15-min baseline period followed. After the baseline period, saline solution (0.9% NaCl) was administered in a bolus fashion (0.1 ml) and was followed by a 15-min period. After the saline period, the peptide (ANP, CNP or VNP) was administered in a bolus fashion (0.1 ml) at 5 μg/kg which was followed by a 15-min period. This was followed by a second bolus (0.1 ml) at 50 μg/kg and a 15-min period. After a 30-min washout, a 15-min recovery period followed. During each experimental period, mean arterial pressure (MAP), heart rate (HR), and right atrial pressure (RAP) were measured. At the midpoint of baseline, second bolus fashion (50 μg/kg) and recovery periods, blood was sampled for plasma cGMP. At the end of each period, urine was measured for volume (UV), and samples were stored for electrolytes and cGMP analysis.
Blood for plasma cGMP analysis was collected into EDTA tubes, immediately placed on ice, and centrifuged at […] at 4° C. Plasma was separated and stored at -20° C. until assay. Urine for cGMP determination was heated to >90° C. before storage. Plasma and urine cGMP were determined by a specific RIA as previously described by A. L. Steiner et al., J. Hypertension, 5 (Suppl. 5) 551-553 (1987).

[3] = normal rats, high dose (50 μg/kg) bolus

CC[C@H](C)[C@@H]1NC(=O)[C@H](CCCNC(=N)N)NC(=O)[C@H](CC(=O)O)NC(=O)[C@H](CC(C)C)NC(=O)[C@H](CCCCN)NC(=O)[C@H](CC(C)C)NC(=O)CNC(=O)[C@H](Cc2ccccc2)NC(=O)[C@@H](NC(=O)CNC(=O)[C@H](CCCCN)NC(=O)[C@H](CO)NC(=O)[C@H](CC(C)C)NC(=O)CN)CSSC[C@@H](C(=O)O)NC(=O)CNC(=O)[C@H](CC(C)C)NC(=O)CNC(=O)[C@H](CO)NC(=O)[C@H](CCSC)NC(=O)[C@H](CO)NC(=O)CNC1=O [CNP, C-type natriuretic peptide]
relaxation ([1]; femoral and saphenous arteries): no effects
maximal response, percent change in tension from a contraction to phenylephrine ([1]; femoral artery, with endothelium, phenylephrine 10^-6 M): 4 ± 3%
maximal response, percent change in tension from a contraction to phenylephrine ([1]; femoral artery, without endothelium): 10 ± 6%
maximal response, percent change in tension from a contraction to phenylephrine ([1]; femoral vein, with endothelium): 37 ± 8%
maximal response, percent change in tension from a contraction to phenylephrine ([1]; femoral vein, without endothelium): 73 ± 8%
relaxation ([1]; femoral veins): 90%
maximal response, percent change in tension from a contraction to phenylephrine ([1]; pulmonary artery, with endothelium): 12 ± 3%
maximal response, percent change in tension from a contraction to phenylephrine ([1]; pulmonary artery, without endothelium): 33 ± 5%
maximal response, percent change in tension from a contraction to phenylephrine ([1]; pulmonary vein, with endothelium): 31 ± 6%
maximal response, percent change in tension from a contraction to phenylephrine ([1]; pulmonary vein, without endothelium): 66 ± 4%
maximal response, percent change in tension from a contraction to phenylephrine ([1]; renal artery, with endothelium): 8 ± 2%
maximal response, percent change in tension from a contraction to phenylephrine ([1]; renal artery, without endothelium): 8 ± 2%
maximal response, percent change in tension from a contraction to phenylephrine ([1]; renal vein, with endothelium): 43 ± 4%
maximal response, percent change in tension from a contraction to phenylephrine ([1]; renal vein, without endothelium): 71 ± 5%
maximal response, percent change in tension from a contraction to phenylephrine ([1]; saphenous artery, with endothelium): 11 ± 7%
maximal response, percent change in tension from a contraction to phenylephrine ([1]; saphenous artery, without endothelium): 14 ± 8%
maximal response, percent change in tension from a contraction to phenylephrine ([1]; saphenous vein, with endothelium): 16 ± 1%
maximal response, percent change in tension from a contraction to phenylephrine ([1]; saphenous vein, without endothelium): 43 ± 10%
relaxation ([1]; saphenous veins): 40%
relaxation, % of the contraction to phenylephrine ([1]; systemic arteries (femoral, saphenous and renal)): less than 30%
natriuretic action (in words) ([2]; in vivo, rat): modest but significant natriuretic actions
change in MAP and RAP (in words) [2, 3]: significant decrease
change in urine flow, sodium excretion, plasma cGMP and urinary cGMP volume (in words) [2, 3]: increased
MAP mean arterial pressure ([2]; normal rats, iv bolus 5 μg/kg, 15-min period): 100 ± 12 mmHg
HR heart rate ([2]; normal rats, iv bolus 5 μg/kg): 363 ± 19 beats/min
RAP right atrial pressure ([2]; normal rats, iv bolus 5 μg/kg): 0 ± 1.5 mmHg
UKV urine potassium excretion ([2]; normal rats, iv bolus 5 μg/kg): 5.1 ± 1.6 µmol/min
UNaV urine sodium excretion ([2]; normal rats, iv bolus 5 μg/kg): 4.1 ± 1.4 µmol/min
UV urine volume ([2]; normal rats, iv bolus 5 μg/kg): 27.6 ± 2.0 µL/min
UcGMPV urine cGMP volume ([2]; normal rats, iv bolus 5 μg/kg): 97 ± 32 pmol/min
HR heart rate ([2]; normal rats, iv bolus 50 μg/kg): 365 ± 19 beats/min
PcGMP plasma cGMP ([2]; normal rats, iv bolus 50 μg/kg): 19.4 ± 2.7 pmol/mL
RAP right atrial pressure ([2]; normal rats, iv bolus 50 μg/kg): -2.3 ± 0.6 mmHg
UKV urine potassium excretion ([2]; normal rats, iv bolus 50 μg/kg): 7.6 ± 2.5 µmol/min
UNaV urine sodium excretion ([2]; normal rats, iv bolus 50 μg/kg): 12.1 ± 3.2 µmol/min
UV urine volume ([2]; normal rats, iv bolus 50 μg/kg): 66.4 ± 7.4 µL/min
UcGMPV urine cGMP volume ([2]; normal rats, iv bolus 50 μg/kg): 323 ± 81 pmol/min
MAP mean arterial pressure ([2]; normal rats, recovery period after 30-min washout): 104 ± 11 mmHg
HR heart rate ([2]; normal rats, recovery period): 363 ± 16 beats/min
PcGMP plasma cGMP ([2]; normal rats, recovery period): 3.6 ± 0.3 pmol/mL
RAP right atrial pressure ([2]; normal rats, recovery period): -0.1 ± 0.9 mmHg
UKV urine potassium excretion ([2]; normal rats, recovery period): 2.4 ± 1.1 µmol/min
UNaV urine sodium excretion ([2]; normal rats, recovery period): 2.9 ± 0.3 µmol/min
UV urine volume ([2]; normal rats, recovery period): 21.2 ± 6.3 µL/min
UcGMPV urine cGMP volume ([2]; normal rats, recovery period): 70 ± 39 pmol/min
MAP mean arterial pressure ([2]; normal rats, second iv bolus 50 μg/kg, 15-min period): 87 ± 9 mmHg
